Results taken from patent EP0652009A1, “Identification and use of protease inhibitors” (ELI LILLY AND COMPANY, priority 1993, dated 1995).
Non-standard residues stand in square brackets, D forms with d. Residues, ends and D or L forms follow the SMILES beside them. 2Nal = N[C@@H](Cc1ccc2ccccc2c1)C(=O)O; Sta = CC(C)C[C@H](N)[C@@H](O)CC(=O)O

Biological target: Cathepsin D (Homo sapiens, UniProt P07339)
Experiment: Assay 3: cathepsin D inhibition activity (non-cellular assay, chromogenic substrate)
Assay type: biochemical
Set-up: Frozen human placental tissue was thawed and homogenized in 10mM Tris-HCl, pH 7.4; from tissue; host or cells: human placenta
Conditions: cathepsin D from human placental tissue, pH 3.7, 37°C
Description: A third non-cellular assay for determining in vitro aspartyl protease inhibitory activity is generally described in Jupp, R.A. et al., (1990) Biochem. J., 265:871-878 and Rao et al., J. Med. Chem. (1993), in press. The assay is carried out by incubating a test compound with a suitable aspartyl protease, such as cathepsin D, in the presence of a chromogenic substrate. The inhibition constant, Ki, value may then be determined by quantifying the competitive inhibition of the hydrolysis of the chromogenic substrate. A variety of chromogenic substrates that are useful for assaying aspartyl protease activity are discussed in Dunn, et al., (1986) Biochem. J., 237:899-906. A preferred chromogenic substrate for a cathepsin D assay is disclosed in Scarborough, P.E. et al., Protein Science, (1993), 2:264-276.
Concentrations of substrate solutions and cleavage products may be verified using amino acid analysis. The enzyme preparations may be titrated with a tightly binding inhibitor to quantitate the active concentration of the enzyme. Enzyme concentrations are typically in the range of from 1-6 nM. […]
A decrease in absorbance in the range of 284-324 nm may be monitored using a spectrophotometer. Absorbance readings are typically taken at various timepoints. […] Estimates of Ki may then be determined using the Dixon construction. […]

Sequence of Cathepsin D (P07339 65-412): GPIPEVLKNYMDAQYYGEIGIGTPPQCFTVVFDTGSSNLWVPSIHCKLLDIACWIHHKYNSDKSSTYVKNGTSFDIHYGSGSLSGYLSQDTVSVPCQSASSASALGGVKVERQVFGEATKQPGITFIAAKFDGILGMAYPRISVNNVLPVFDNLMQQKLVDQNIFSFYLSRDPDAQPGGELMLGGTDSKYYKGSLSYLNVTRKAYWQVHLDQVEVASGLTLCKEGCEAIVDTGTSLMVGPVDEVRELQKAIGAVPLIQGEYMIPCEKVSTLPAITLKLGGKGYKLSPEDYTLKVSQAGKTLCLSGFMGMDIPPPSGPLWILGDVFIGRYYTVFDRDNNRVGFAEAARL

CC(=O)N[C@@H](Cc1ccc2ccccc2c1)C(=O)N[C@H](C(=O)N[C@@H](CC(C)C)[C@@H](O)CC(=O)N[C@@H](CC(C)C)C(=O)N[C@@H](Cc1ccc2ccccc2c1)C(N)=O)C(C)C [Example 36, Acetyl-β-naphthylalanine-valine-statine-leucine-β-naphthylalanine-amide] (Ac-[2Nal]V[Sta]L[2Nal]-NH2)
Ki: 0.39 ± 0.04 nM
